Results reported in US9133168B2, “Pyrimidine derivatives, preparation thereof, and pharmaceutical use thereof as akt(pkb) phosphorylation inhibitors” (SANOFI, priority 2010, dated 2015).

System: AKT protein phosphorylated on serine 473 (P-AKT-S473) in PC3 human prostate carcinoma cells
Assay: pAKT expression in PC3 human prostate carcinoma cells, MSD Multi-spot Biomarker detection (Test A)
Format: cell-based
Procedure: The inhibitory activity of the molecules on AKT phosphorylation is measured using the MSD Multi-spot Biomarker detection technique from Meso Scale Discovery also described below. […] The primary antibody specific for […]) is coated on to an electrode in each well of the 96-well plates of the MSD kit: after the addition of a protein lysate to each well, the signal is visualized by adding a secondary detection antibody labeled with an electrochemiluminescent compound. The procedure followed is the one described in the kit. […] On day 2, the cells are incubated in the presence or absence of the test products for 1 to 2 h at 37° C. in the presence of 5% CO2. The molecules, diluted in dimethyl sulfoxide (DMSO Sigma #D2650), are added from a 20-times concentrated stock solution, the final percentage of DMSO being 0.1%. The molecules are tested either at a single concentration of less than or equal to 10 μM, or at increasing concentrations in a range that can extend from less than 1 nM to 10 μM. After this incubation, the cells are lysed for the preparation of the proteins. […] At this stage, the plates containing the lysates can be frozen at -20° C. or at -80° C. The wells of the 96 well plates of the MSD kit are saturated for 1 h at ambient temperature with the blocking solution of the MSD kit. Four washes are carried out with 150 μl of Tris Wash Buffer of the MSD kit. The lysates previously prepared are transferred into the 96-well multi-spot plates of the MSD kit and incubated for 1 h at ambient temperature, with shaking. Four washes are carried out with 150 μl of Tris Wash Buffer of the MSD kit. 25 μl of the MSD sulfo-tag detection antibody solution are added to the wells and incubated for 1 h at ambient temperature, with shaking. Four washes are carried out with 150 μl of Tris Wash Buffer of the MSD kit. 150 μl of Read Buffer of the MSD kit are added to the wells and the plates are read immediately on the S12400 instrument from Meso Scale Discovery. The instrument measures a signal for each well. Wells without cells and containing the lysis buffer serve to determine the background noise that will be subtracted from all the measurements (min). The wells containing cells in the absence of product and in the presence of 0.1% DMSO are considered to be the 100% signal (max). The percentage inhibition is calculated for each concentration of product tested, according to the following formula: (1-((test-min)/(max-min)))×100. […] Two independent experiments make it possible to calculate the mean of the IC50 values.

[1] = Homo sapiens, PC-3, PC3 cells, 1 to 2 h incubation, P-AKT-S473, absolute IC50, mean of two independent experiments
[2] = PC3 cells, 1 to 2 h incubation, P-AKT-S473, absolute IC50, mean of two independent experiments

IC50 [1] [nM]	IC50 [2] [nM]	SMILES	further results
12	–	CC1CN(c2cc(=O)[nH]c(CC(=O)N3CCc4c(Cl)cccc43)n2)CCO1 (stereo not shown) [Example 28b, 2-[2-(4-chloro-2,3-dihydroindol-1-yl)-2-oxoethyl]-6-(2-methylmorpholin-4-yl)-3H-pyrimidin-4-one]	–
–	58	O=C(Cc1nc(N2CCOC(CF)C2)cc(=O)[nH]1)N1CCc2c(F)cccc21 (stereo not shown) [Example 6b, 2-[2-(4-fluoro-2,3-dihydroindol-1-yl)-2-oxoethyl]-6-(2-fluoromethylmorpholin-4-yl)-3H-pyrimidin-4-one]	–
24	–	CC1CN(c2cc(=O)[nH]c(CC(=O)N3c4ccccc4C[C@@H]3C)n2)CCO1 (single isomer, unassigned; (+)) [Example 29b]	–
–	8	CC1CN(c2cc(=O)[nH]c(CC(=O)N3CCc4c(F)cccc43)n2)CCO1 (single isomer, unassigned; (+)) [Example 10b, (+)-2-[2-(4-fluoro-2,3-dihydroindol-1-yl)-2-oxoethyl]-6-(2-methylmorpholin-4-yl)-3H-pyrimidin-4-one]	–
–	156	CC1CN(c2cc(=O)[nH]c(CC(=O)N3CCc4c(F)cccc43)n2)CCO1 (single isomer, unassigned; (-)) [Example 9b, (−)-2-[2-(4-fluoro-2,3-dihydroindol-1-yl)-2-oxoethyl]-6-(2-methylmorpholin-4-yl)-3H-pyrimidin-4-one]	–
55	–	CC1Cc2cc(F)ccc2N1C(=O)Cc1nc(N2CCOCC2)c(F)c(=O)n1C (stereo not drawn) [Example 14a, 5-fluoro-2-[2-((−)-5-fluoro-2-methyl-2,3-dihydroindol-1-yl)-2-oxoethyl]-3-methyl-6-morpholin-4-yl-3H-pyrimidin-4-one]	–
4	–	C[C@H]1Cc2ccccc2N1C(=S)Cc1nc(N2CCOCC2)cc(=S)[nH]1 [Example 2e, 2-[2-((S)-2-methyl-2,3-dihydroindol-1-yl)-2-thioxoethyl]-6-morpholin-4-yl-3H-pyrimidine-4-thione]	–
54	–	O=C(Cc1nc(N2CCOCC2)cc(=O)[nH]1)N1CCc2c(OC(F)(F)F)cccc21 [Example 3d, 6-(morpholin-4-yl)-2-{2-oxo-2-[4-(trifluoromethoxy)-2,3-dihydro-1H-indol-1-yl]ethyl}pyrimidin-4(3H)-one]	–
–	21	O=C(Cc1nc(N2CCOC(CF)C2)cc(=O)[nH]1)N1CCc2c(F)cccc21 (single isomer, unassigned; (+)) [Example 7b, (+)-2-[2-(4-fluoro-2,3-dihydroindol-1-yl)-2-oxoethyl]-6-(2-fluoromethylmorpholin-4-yl)-3H-pyrimidin-4-one]	–
–	1	CC1Cc2c(Cl)cccc2N1C(=O)Cc1nc(N2CCOCC2)cc(=O)[nH]1 (single isomer, unassigned; (-)) [Example 3c, (−)-2-{2-[4-chloro-2-methyl-2,3-dihydro-1H-indol-1-yl]-2-oxoethyl}-6-(morpholin-4-yl)pyrimidin-4(3H)-one]	–
60	–	Cn1c(CC(=O)N2CCc3c(OC(F)F)cccc32)nc(N2CCOCC2)cc1=O [Example 8d, 2-{2-[4-(difluoromethoxy)-2,3-dihydro-1H-indol-1-yl]-2-oxoethyl}-3-methyl-6-(morpholin-4-yl)pyrimidin-4(3H)-one]	–
101	–	N#Cc1cccc2c1CCN2C(=O)Cc1nc(N2CCOCC2)cc(=O)[nH]1 [Example 46c, 1-{[4-(morpholin-4-yl)-6-oxo-1,6-dihydropyrimidin-2-yl]acetyl}-2,3-dihydro-1H-indole-4-carbonitrile]	–
211	–	CC1Cc2cc(F)c(F)cc2N1C(=O)Cc1nc(N2CCOCC2)c(F)c(=O)n1C (stereo not drawn) [Example 26a, 5-fluoro-2-[2-((+)-5,6-difluoro-2-methyl-2,3-dihydroindol-1-yl)-2-oxoethyl]-3-methyl-6-morpholin-4-yl-3H-pyrimidin-4-one]	–
66	–	O=C(Cc1nc(N2CCOCC2)cc(=O)[nH]1)N1CCc2c(-c3ccccn3)cccc21 [Example 12d, 6-(morpholin-4-yl)-2-{2-oxo-2-[4-(pyridin-2-yl)-2,3-dihydro-1H-indol-1-yl]ethyl}pyrimidin-4(3H)-one]	–
–	20	CC1Cc2c(Cl)cccc2N1C(=O)Cc1nc(N2CCOCC2)c(F)c(=O)n1C (stereo not drawn) [Example 29a, 5-fluoro-2-[2-((−)-4-chloro-2-methyl-2,3-dihydroindol-1-yl)-2-oxoethyl]-3-methyl-6-morpholin-4-yl-3H-pyrimidin-4-one]	–
–	45	CC1Cc2c(Br)cccc2N1C(=O)Cc1nc(N2CCOCC2)c(F)c(=O)[nH]1 (single isomer, unassigned; (-)) [Example 17a, (−)-2-{2-[4-bromo-2-methyl-2,3-dihydro-1H-indol-1-yl]-2-oxoethyl}-5-fluoro-6-(morpholin-4-yl)pyrimidin-4(3H)-one]	–
–	8	CC1Cc2c(OC(F)F)cccc2N1C(=O)Cc1nc(N2CCOCC2)cc(=O)[nH]1 (single isomer, unassigned; (-)) [Example 30d, (−)-2-{2-[4-(difluoromethoxy)-2-methyl-2,3-dihydro-1H-indol-1-yl]-2-oxoethyl}-6-(morpholin-4-yl)pyrimidin-4(3H)-one]	–
–	27	CC1Cc2ccccc2N1C(=O)Cc1nc(N2CCOCC2)cc(=O)[nH]1 (single isomer, unassigned; (+)) [Example 21b, (+)-2-[2-(2-methyl-2,3-dihydroindol-1-yl)-2-oxoethyl]-6-morpholin(D8)-4-yl-3H-pyrimidin-4-one]	–
–	5	CC1Cc2cc(F)ccc2N1C(=O)Cc1nc(N2CCOCC2)cc(=O)[nH]1 (single isomer, unassigned; (+)) [Example 13c, (+)-2-{2-[5-fluoro-2-methyl-2,3-dihydro-1H-indol-1-yl]-2-oxoethyl}-6-(morpholin-4-yl)pyrimidin-4(3H)-one]	–
105	–	CCC1CN(c2cc(=O)[nH]c(CC(=O)Nc3ccc(F)cc3)n2)CCO1 (single isomer, unassigned; (+)) [Example 15b, (+)-2-[4-(2-Ethylmorpholin-4-yl)-6-oxo-1,6-dihydropyrimidin-2-yl]-N-(4-fluorophenyl)acetamide]	–
11	–	CC1Cc2c(ccc(F)c2F)N1C(=O)Cc1nc(N2CCOCC2)c(F)c(=S)[nH]1 (stereo not drawn) [Example 8e, 1-((+)-4,5-Difluoro-2-methyl-2,3-dihydroindol-1-yl)-2-(5-fluoro-4-morpholin-4-yl-6-thioxo-1,6-dihydropyrimidin-2-yl)ethanone]	–
–	13	O=C(Cc1nc(N2CCOCC2)cc(=O)[nH]1)N1c2ccccc2CC1CF (stereo not drawn) [Example 40d, 2-[2-((−)-2-Fluoromethyl-2,3-dihydroindol-1-yl)-2-oxoethyl]-6-morpholin-4-yl-3H-pyrimidin-4-one]	–
94	–	O=C(Cc1nc(N2CCOCC2)cc(=O)[nH]1)N1CCc2c(-c3ccncc3)cccc21 [Example 10d, 6-(morpholin-4-yl)-2-{2-oxo-2-[4-(pyridin-4-yl)-2,3-dihydro-1H-indol-1-yl]ethyl}pyrimidin-4(3H)-one]	–
–	–	Cn1c(CC(=O)Nc2ccc(F)c(Cl)c2)nc(N2CCOC(CF)C2)cc1=O (single isomer, unassigned; (+)) [Example 5b, (+)-N-(3-chloro-4-fluorophenyl)-2-[4-(2-fluoromethylmorpholin-4-yl)-1-methyl-6-oxo-1,6-dihydropyrimidin-2-yl]acetamide]	IC50 (Homo sapiens, PC-3): 127 nM
–	5	C[C@@H]1Cc2ccccc2N1C(=O)Cc1nc(N2CCOCC2)cc(=O)[nH]1 [Example 20b, (−)-2-[2-(2-methyl-2,3-dihydroindol-1-yl)-2-oxoethyl]-6-(2,2,6,6-morpholin-D4)-4-yl-3H-pyrimidin-4-one]	–
196	–	Cn1c(CC(=O)N2CC3(CCNCC3)c3ccccc32)nc(N2CCOCC2)cc1=O [Example 23d, 3-methyl-6-(morpholin-4-yl)-2-[2-oxo-2-(spiro[indole-3,4′-piperidin]-1(2H)-yl)ethyl]pyrimidin-4(3H)-one]	–
4	–	CC(C)C1Cc2ccccc2N1C(=O)Cc1nc(N2CCOCC2)cc(=O)[nH]1 (single isomer, unassigned; (-)) [Example 39c, (−)-2-[2-(2-isopropyl-2,3-dihydroindol-1-yl)-2-oxoethyl]-6-morpholin-4-yl-3H-pyrimidin-4-one]	–
–	162	CC1Cc2cc(F)c(F)cc2N1C(=O)Cc1nc(N2CCOCC2)c(F)c(=O)[nH]1 (stereo not drawn) [Example 13a, 2-[2-((−)-5,6-difluoro-2-methyl-2,3-dihydroindol-1-yl)-2-oxoethyl]-5-fluoro-6-morpholin-4-yl-3H-pyrimidin-4-one]	–
